Kd data for one molecule are collected here from doi:10.1101/2025.04.14.25325787v4 (medrxiv, 2025).

As usually defined, the Kd is the equilibrium constant for the complex coming apart.

The assay has as its target EGFR kinase domain (Homo sapiens, UniProt P00533). The assay is described as follows: SPR. It is filed as binding.

EGFR kinase domain, sequence (P00533 704-1016): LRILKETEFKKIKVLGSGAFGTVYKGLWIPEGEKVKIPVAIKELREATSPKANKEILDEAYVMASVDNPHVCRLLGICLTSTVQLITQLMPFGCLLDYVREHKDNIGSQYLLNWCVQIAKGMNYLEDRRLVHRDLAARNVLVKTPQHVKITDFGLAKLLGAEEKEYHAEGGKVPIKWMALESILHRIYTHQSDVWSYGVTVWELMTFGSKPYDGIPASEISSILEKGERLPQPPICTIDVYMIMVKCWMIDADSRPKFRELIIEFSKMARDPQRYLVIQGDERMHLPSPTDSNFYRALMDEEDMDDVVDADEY

`COc1ccc(CCn2c(=O)c3cc4c(cc3c3ccccc32)OCO4)cc1` [Z5, ZYH005] returned a Kd of 19.6 µM.
